Six molecules from patent US7998718B2, “Identification and functional characterization of a novel ribosomal S6 protein kinase” (Ludwig Institute for Cancer Research Ltd., priority 1998, dated 2011) can be followed below.

Assay [1] deals with p70β^S6k (p70β-II). Briefly: S6 kinase assay (40S subunits) on immunoprecipitates of transfected HEK293 cells treated with rapamycin or wortmannin. Type of assay: cell-based, human. Conditions: 30 min, HEK293 cells in DMEM with 10% FCS. On the procedure: (§1) FIG. 6A-6B. Effects of rapamycin and wortmannin on p70β^S6k and p70α^S6k. Effects of rapamycin and wortmannin on S6 phosphorylation activity of p70α-I or p70β-II. HEK293 cells were transfected with mock cDNA or plasmids containing FLAG-tagged p70β1 or p70β2 isoforms. After 48 h of transfection, cells were treated with vehicle or indicated concentrations of rapamycin or wortmannin for 30 min. After immunoprecipitation with anti-FLAG antibodies, the kinase activity was determined by a p70 S6 kinase assay using 40S subunits as substrates. The proteins of the reaction mixture were separated by SDS-PAGE, transferred onto PVDF membrane and analyzed by autoradiography (FIGS. 6A and 6B, upper panels). Subsequent immunoblotting with anti-FLAG antibody confirmed the expression of p70α-I (FIG. 6A, lower panel) and p70β-II (FIG. 6B, lower panel). A representative of three experiments is shown. ^32P incorporation into S6 was quantified by PhosphorImager and is expressed in arbitrary units (PI units).
Materials and Methods. Treatment of transfected cells with rapamycin or wortmannin was performed as follows: 48 h after transfection, the cells were treated with various concentrations of rapamycin or wortmannin for 30 min.
Results. […] Thus, the effects of both inhibitors on p70β^S6k activity were examined. […]

The test system of assay [2] is p70α^S6k (p70α-I). The description is as above. The class given is cell-based, rat. Conditions: 30 min, HEK293 cells in DMEM with 10% FCS. On the procedure: as §1
Materials and Methods. Restriction enzymes and DNA modification enzymes were obtained from standard commercial sources and used according to manufacturer's recommendations. Oligonucleotides which were used for sequencing of p70β^S6k and various PCR fragments were synthesized by Genosys or Japan Bioservice, Inc. The pcDNA1 and pcDNA3 mammalian expression vectors were from Invitrogen. […]

Assay [3] has as its system p70β^S6k (p70β-II isoform). The assay is described as follows: Stimulation of S6 kinase activity in transfected CHO-IR cells. Type of assay: cell-based, human. The note with it: serum-starved CHO-IR cells. Here is the method: (§2) FIG. 5A. CHO-IR cells were transfected with mock (lane 1) or plasmids containing cDNAs of FLAG-tagged p70α-I (lanes 2 and 3) or FLAG-tagged p70β-II (lanes 4 to 7). After serum starvation for 16 hrs, cells were treated with the vehicle (lanes 2 and 4), 10^−7 M insulin for 10 min (lanes 3 and 5), 15% serum for 10 min (lane 6) or 500 nM TPA for 30 min (lane 7). After cell lysis and subsequent immunoprecipitation with anti-FLAG antibodies, immunoprecipitates were subjected to a p70 S6 kinase assay using 40S subunits as substrates. The reaction mixture was separated by SDS-PAGE, transferred onto PVDF membrane. The membrane was analyzed by autoradiography (upper panel) and then immunoblotted with anti-FLAG antibodies (lower panel). A representative of three experiments is shown. ^32P incorporation into S6 was quantified by Molecular Dynamics. PhosphorImager™ and is expressed in arbitrary units (PI units).
(§3) Materials and Methods. HEK293 cells or CHO-IR cells were transfected with plasmids containing p70α^S6k and p70β^S6k sequences using lipofectAMINE under conditions recommended by the manufacturer (Gibco-BRL). Two days later, transfected cells were frozen in liquid nitrogen and stored until lysis. […]
(§4) Results. […] The activation of p70β^S6k (p70β-II isoform) by insulin was analyzed in CHO-IR cells, which stably over expresses the insulin receptor. […]

For assay [4], the system named is p70α^S6k (p70α-I). The description is as above. The class given is cell-based, rat. The note with it: 10^-7 M insulin for 10 min, serum-starved CHO-IR cells. Here is the method: as §2, §3, §4
The subject of assay [5] is 40S ribosomal subunit. Briefly: In vitro S6 kinase assay of activated kinase variants expressed in HEK293 cells. The class given is biochemical. Conditions: versus wild type p70α^S6k. Here is the method: Materials and Method. Activated variants of p70β^S6k and p70α^S6k were made by site-directed mutagenesis. Oligonucleotide primers, specific to the site to be mutated and complimentary to opposite strands of p70β^S6k and p70α^S6k sequences were generated as recommended by manufacturer (Stratagene). Site directed mutagenesis was carried out using pcDNA3/Glu-tag-p70β^S6k and pcDNA3/Glu-tag-p70α^S6k expression vector/plasmids as templates, according to the recommended protocol (Stratagene). All mutations were verified by DNA sequencing. Expression of mutated forms of both kinases was analyzed by immunobloting with anti-Glu-tag antibodies. The activity of normal and mutated forms of both kinases was measured by in vitro S6 kinase assay. 40S ribosomal subunit was used as a substrate in this reaction.
We have generated an activated form of p70β^S6k by substituting putative phosphorylation site Thr 401 with Aspartic acid (Asp) (“p70β^S6k (T401D)”) as shown in FIG. 10.

In assay [6] the test system is p70α^S6k. The assay is described as follows: Stimulation of S6 kinase activity by PDGF in transfected PAE-PDGF-R cells. The class given is cell-based, rat. The note with it: 20 ng/ml PDGF BB for 20 min, serum-starved PAE-PDGF-R cells. Here is the method:
(§5) FIG. 5B. Stimulation of the p70α^S6k and p70β^S6k activity towards ribosomal S6 protein by PDGF in PAE-PDGF-R cells. PAE-PDGF-R cells were transfected with EE-tagged p70α^S6k and p70β^S6k plasmids using lipofectAMINE. After 24 hr, transfected cells were serum-starved for 16 hr and stimulated with 20 ng/ml PDGF BB (Calbiochem) for 20 min. Control cells were treated with the vehicle under the same conditions. After immunoprecipitation with anti-EE antibodies, an in vitro kinase reaction was carried out in the presence of 40S subunits, containing the S6 protein. Reaction mixtures were separated by SDS-PAGE and incorporation of ^32P into S6 protein was measured by PhosphoImager.
(§6) Materials and Methods. HEK293 cells or CHO-IR cells were transfected with plasmids containing p70α^S6k and p70β^S6k sequences using lipofectAMINE under conditions recommended by the manufacturer (Gibco-BRL). Two days later, transfected cells were frozen in liquid nitrogen and stored until lysis. After cell extraction, the lysates were subjected to immunoprecipitation and/or immunoblot analysis. If cells were to be stimulated, they were starved in medium without FCS for 16 h and then stimulated with 10^−7 M insulin for 10 min, 15% FCS for 10 min, 500 nM TPA for 30 min or vehicle alone. PAE-PDGF-R cells were transfected with appropriate plasmids using lipofect under conditions recommended by the manufacturer. […]

In assay [7] the test system is p70β^S6k (p70β-II isoform). Described as above. The class given is cell-based, human. Conditions: 20 ng/ml PDGF BB for 20 min, serum-starved PAE-PDGF-R cells. Here is the method:
as §5, §6

For `COC[C@H]1OC(=O)c2coc3c2[C@@]1(C)C1=C(C3=O)[C@@H]2CCC(=O)[C@@]2(C)C[C@H]1OC(C)=O` [wortmannin], the “inhibition of p70β^S6k activity” value in assay [1] (100 nM wortmannin) was determined as 62%. For the same molecule, in assay [2] (100 nM wortmannin), the “inhibition of p70α^S6k activity” value is given as 86%.

Take “insulin: hormone used to stimulate CHO-IR cells”: the “induction of p70β^S6k activity towards ribosomal S6 protein” value in assay [3] (10^-7 M insulin for 10 min) came out at 2.8 fold. Also, the “activation of p70α^S6k activity” value in assay [4] is listed as 3.5 fold.

“p70α^S6k (T412D): activated version of p70α^S6k made by site-directed mutagenesis”: the “S6 kinase activation compared with wild type kinase” value in assay [5] was 18 fold.

For `CCCCCCCCCCCCCC(=O)O[C@@H]1[C@@H](C)[C@@]2(O)[C@@H](C=C(CO)C[C@]3(O)C(=O)C(C)=C[C@@H]23)[C@@H]2C(C)(C)[C@]12OC(C)=O` [TPA], in assay [3] (500 nM TPA for 30 min), the “stimulation of p70β^S6k phosphorylation of ribosomal protein S6” value is reported as “stimulated”.

Regarding `CO[C@H]1C[C@@H]2CC[C@@H](C)[C@@](O)(O2)C(=O)C(=O)N2CCCC[C@H]2C(=O)O[C@H]([C@H](C)C[C@@H]2CC[C@@H](O)[C@H](OC)C2)CC(=O)[C@H](C)/C=C(\C)[C@@H](O)[C@@H](OC)C(=O)[C@H](C)C[C@H](C)/C=C/C=C/C=C/1C` [rapamycin], in assay [1] (20 nM rapamycin), the “inhibition of p70β^S6k” value is 46%. Further, the “inhibition of the p70α^S6k” value in assay [2] (20 nM rapamycin) was 92%.

B1: PDGF: PDGF BB growth factor purchased from Calbiochem (protein, UniProt P01127 82-190, looked up)
Platelet-derived growth …: SLGSLTIAEPAMIAECKTRTEVFEISRRLIDRTNANFLVWPPCVEVQRCSGCCNNRNVQCRPTQVQLRPVQVRKIEIVRKKPIFKKATVTLEDHLACKCETVAAARPVT
modifications: Platelet-derived growth factor subunit B
notes: PDGF BB growth factor purchased from Calbiochem
B1: the “activation of p70α^S6k” value in assay [6] came out at 3.4 fold. Besides, the “activation of p70β^S6k” value in assay [7] was determined as 30 fold.
